From ChEMBL document CHEMBL4152284, “Novel tetrahydrocarbazole benzyl pyridine hybrids as potent and selective butryl cholinesterase inhibitors with neuroprotective and β-secretase inhibition activities” (Eur J Med Chem, 2018)
pIC50, pKi: −log10 of the molar value.

Tests used:
[1] = molecular target: T1, Acetylcholinesterase (Torpedo californica, UniProt P04058); assay: Inhibition of Torpedo californica AChE using acetylthiocholine iodide as substrate preincubated for 10 mins followed by substrate addition measured for 5 mins by Ellman's method; type: single protein, Tetronarce californica
[2] = molecular target: T2, Cholinesterase (Equus caballus, UniProt P81908); assay: Inhibition of equine serum BChE using butyrylthiocholine iodide as substrate preincubated for 10 mins followed by substrate addition measured for 5 mins by Ellman's method
[3] = Selectivity index, ratio of IC50 for Torpedo californica AChE to IC50 for equine serum BChE
[4] = molecular target: Cholinesterase (Equus caballus) (UniProt P81908); assay: Potency index, ratio of donepezil IC50 to test compound IC50 for equine serum BChE
[5] = molecular target: T2, Cholinesterase; assay: Mixed-type inhibition of equine serum BChE using varying levels of butyrylthiocholine iodide as substrate by Lineweaver-burk plot analysis
[6] = test system: PC-12; assay: Neuroprotective activity against H2O2-induced cell death in rat PC12 cells assessed as cell viability at 10 uM pretreated for 3 hrs followed by H2O2 addition and measured after 12 hrs by MTT assay relative to control; type: functional; settings: read-out: Activity
[7] = molecular target: Beta-secretase 1 (Homo sapiens) (UniProt P56817); assay: Inhibition of recombinant human BACE1 (1 to 460 residues) expressed in baculovirus-infected insect cells at 50 uM using Rh-EVNLDAEFK-quencher as substrate measured after 90 mins by fluorescence assay relative to control
[8] = molecular target: Beta-secretase 1 (Homo sapiens) (UniProt P56817); assay: Inhibition of recombinant human BACE1 (1 to 460 residues) expressed in baculovirus-infected insect cells at 10 uM using Rh-EVNLDAEFK-quencher as substrate measured after 90 mins by fluorescence assay relative to control
[9] = molecular target: Amyloid-beta precursor protein (Homo sapiens) (UniProt P05067); assay: Inhibition of HFIP-pretreated amyloid beta (1 to 42) (unknown origin) self-induced aggregation at 10 uM after 48 hrs by thioflavin-T fluorescence assay relative to control
[10] = molecular target: Cholinesterase (Homo sapiens) (UniProt P06276); assay: Inhibition of human BchE (unknown origin)-induced amyloid beta (1 to 42) aggregation at 10 uM after 48 hrs by thioflavin T fluorescence method relative to control
[11] = molecular target: T1, Acetylcholinesterase; assay: Inhibition of Torpedo californica AChE using acetylthiocholine iodide as substrate preincubated for 15 mins followed by substrate addition by Ellman's method; parameters: species or system Tetronarce californica
[12] = molecular target: T2, Cholinesterase; assay: Inhibition of equine serum BChE using butyrylthiocholine iodide as substrate preincubated for 15 mins followed by substrate addition by Ellman's method
[13] = Selectivity index, ratio of IC50 for electric eel AChE to IC50 for equine serum BChE
[14] = molecular target: T3, Acetylcholinesterase (Electrophorus electricus, UniProt O42275); assay: Inhibition of electric eel AChE using acetylthiocholine iodide as substrate preincubated for 15 mins followed by substrate addition measured after 15 mins by Ellman's method
[15] = molecular target: T2, Cholinesterase; assay: Inhibition of equine serum BChE using butyrylthiocholine iodide as substrate preincubated for 15 mins followed by substrate addition measured after 15 mins by Ellman's method
[16] = molecular target: T3, Acetylcholinesterase; assay: Inhibition of electric eel AChE using acetylthiocholine iodide as substrate preincubated for 10 mins followed by substrate addition measured for 6 mins by Ellman's method
[17] = molecular target: T2, Cholinesterase; assay: Inhibition of equine serum BChE using butyrylthiocholine iodide as substrate preincubated for 10 mins followed by substrate addition measured for 6 mins by Ellman's method

T2 sequence (P81908 whole entry): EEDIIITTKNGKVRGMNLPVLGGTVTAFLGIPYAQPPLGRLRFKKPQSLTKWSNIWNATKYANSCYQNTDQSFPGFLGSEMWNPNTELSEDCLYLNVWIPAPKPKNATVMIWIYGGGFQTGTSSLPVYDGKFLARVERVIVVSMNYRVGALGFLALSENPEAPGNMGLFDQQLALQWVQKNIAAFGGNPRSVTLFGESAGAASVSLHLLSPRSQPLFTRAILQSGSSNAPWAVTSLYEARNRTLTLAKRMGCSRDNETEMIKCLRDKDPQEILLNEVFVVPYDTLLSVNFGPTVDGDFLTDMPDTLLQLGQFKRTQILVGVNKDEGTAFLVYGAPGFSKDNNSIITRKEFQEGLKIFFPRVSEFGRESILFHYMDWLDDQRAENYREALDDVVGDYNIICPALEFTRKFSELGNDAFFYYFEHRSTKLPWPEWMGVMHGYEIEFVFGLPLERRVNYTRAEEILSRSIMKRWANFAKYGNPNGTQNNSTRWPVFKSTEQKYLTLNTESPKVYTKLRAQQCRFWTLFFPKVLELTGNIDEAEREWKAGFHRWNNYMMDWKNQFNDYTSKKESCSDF
T1 sequence (P04058 whole entry): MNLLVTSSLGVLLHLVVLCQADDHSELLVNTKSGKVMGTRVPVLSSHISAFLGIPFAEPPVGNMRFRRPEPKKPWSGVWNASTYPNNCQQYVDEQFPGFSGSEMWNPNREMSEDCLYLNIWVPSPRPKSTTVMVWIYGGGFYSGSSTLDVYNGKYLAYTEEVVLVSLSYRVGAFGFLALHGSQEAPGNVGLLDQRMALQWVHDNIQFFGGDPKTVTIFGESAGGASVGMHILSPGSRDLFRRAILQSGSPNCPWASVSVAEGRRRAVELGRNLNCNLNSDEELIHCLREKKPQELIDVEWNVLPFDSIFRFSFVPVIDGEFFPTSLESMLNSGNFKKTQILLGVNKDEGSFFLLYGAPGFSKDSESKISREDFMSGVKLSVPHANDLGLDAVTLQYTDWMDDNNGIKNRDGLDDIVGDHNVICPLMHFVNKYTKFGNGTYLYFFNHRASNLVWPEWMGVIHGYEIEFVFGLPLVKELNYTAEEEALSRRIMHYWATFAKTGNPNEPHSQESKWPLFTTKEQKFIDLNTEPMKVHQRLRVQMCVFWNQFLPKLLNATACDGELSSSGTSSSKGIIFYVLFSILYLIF
Sequence of Beta-secretase 1 (Homo sapiens) (P56817 whole entry, the tested form may be a part): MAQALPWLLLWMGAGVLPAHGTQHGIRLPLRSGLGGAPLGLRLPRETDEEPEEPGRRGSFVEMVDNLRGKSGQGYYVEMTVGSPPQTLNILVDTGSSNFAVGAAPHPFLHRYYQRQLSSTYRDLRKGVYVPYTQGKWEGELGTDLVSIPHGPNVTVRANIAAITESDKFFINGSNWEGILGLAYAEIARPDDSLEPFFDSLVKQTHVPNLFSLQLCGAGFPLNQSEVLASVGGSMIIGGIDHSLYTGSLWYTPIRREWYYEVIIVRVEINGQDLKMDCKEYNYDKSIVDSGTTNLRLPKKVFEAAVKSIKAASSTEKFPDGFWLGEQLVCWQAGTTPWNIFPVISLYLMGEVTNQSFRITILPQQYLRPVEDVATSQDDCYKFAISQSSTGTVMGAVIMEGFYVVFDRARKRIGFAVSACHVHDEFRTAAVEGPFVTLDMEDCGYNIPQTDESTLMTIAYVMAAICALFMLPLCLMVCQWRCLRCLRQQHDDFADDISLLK
T3 sequence (O42275 whole entry): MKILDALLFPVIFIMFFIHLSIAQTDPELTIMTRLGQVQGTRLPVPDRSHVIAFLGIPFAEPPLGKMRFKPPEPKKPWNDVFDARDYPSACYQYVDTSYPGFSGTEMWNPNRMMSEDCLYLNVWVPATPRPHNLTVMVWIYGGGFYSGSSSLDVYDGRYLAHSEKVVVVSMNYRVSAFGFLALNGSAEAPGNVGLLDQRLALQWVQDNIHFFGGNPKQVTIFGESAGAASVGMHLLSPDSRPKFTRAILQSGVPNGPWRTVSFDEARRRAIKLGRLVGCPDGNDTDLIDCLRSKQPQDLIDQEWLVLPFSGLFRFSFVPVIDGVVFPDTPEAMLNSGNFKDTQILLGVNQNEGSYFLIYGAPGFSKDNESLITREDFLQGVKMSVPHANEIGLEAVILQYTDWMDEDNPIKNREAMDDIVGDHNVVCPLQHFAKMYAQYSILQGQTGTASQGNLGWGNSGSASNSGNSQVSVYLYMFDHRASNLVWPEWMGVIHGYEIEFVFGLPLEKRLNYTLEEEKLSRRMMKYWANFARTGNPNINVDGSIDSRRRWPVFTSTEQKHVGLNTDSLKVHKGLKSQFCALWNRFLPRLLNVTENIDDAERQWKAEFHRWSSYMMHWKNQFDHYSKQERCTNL
Sequence of Cholinesterase (Equus caballus) (P81908 whole entry): as the sequence (P81908 whole entry) above
Sequence of Amyloid-beta precursor protein (Homo sapiens) (P05067 whole entry): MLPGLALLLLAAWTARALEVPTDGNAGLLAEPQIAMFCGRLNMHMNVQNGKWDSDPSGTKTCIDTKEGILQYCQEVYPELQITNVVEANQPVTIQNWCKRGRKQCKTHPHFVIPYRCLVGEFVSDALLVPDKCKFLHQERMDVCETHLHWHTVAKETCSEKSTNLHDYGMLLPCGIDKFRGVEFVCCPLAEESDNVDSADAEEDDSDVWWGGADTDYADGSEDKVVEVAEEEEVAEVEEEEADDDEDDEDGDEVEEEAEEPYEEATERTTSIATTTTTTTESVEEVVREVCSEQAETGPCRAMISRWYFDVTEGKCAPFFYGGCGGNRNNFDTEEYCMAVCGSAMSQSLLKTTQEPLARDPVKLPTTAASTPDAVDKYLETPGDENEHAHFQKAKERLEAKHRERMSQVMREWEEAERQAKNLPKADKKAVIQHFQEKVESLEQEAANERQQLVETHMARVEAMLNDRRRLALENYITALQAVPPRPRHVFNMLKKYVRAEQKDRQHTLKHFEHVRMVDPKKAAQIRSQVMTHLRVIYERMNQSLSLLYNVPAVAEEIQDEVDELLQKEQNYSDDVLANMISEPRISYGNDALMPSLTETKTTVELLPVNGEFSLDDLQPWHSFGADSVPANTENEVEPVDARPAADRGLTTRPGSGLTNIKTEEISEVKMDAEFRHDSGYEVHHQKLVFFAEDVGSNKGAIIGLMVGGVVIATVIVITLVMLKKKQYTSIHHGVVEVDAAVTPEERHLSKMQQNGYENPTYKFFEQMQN
Sequence of Cholinesterase (Homo sapiens) (P06276 whole entry): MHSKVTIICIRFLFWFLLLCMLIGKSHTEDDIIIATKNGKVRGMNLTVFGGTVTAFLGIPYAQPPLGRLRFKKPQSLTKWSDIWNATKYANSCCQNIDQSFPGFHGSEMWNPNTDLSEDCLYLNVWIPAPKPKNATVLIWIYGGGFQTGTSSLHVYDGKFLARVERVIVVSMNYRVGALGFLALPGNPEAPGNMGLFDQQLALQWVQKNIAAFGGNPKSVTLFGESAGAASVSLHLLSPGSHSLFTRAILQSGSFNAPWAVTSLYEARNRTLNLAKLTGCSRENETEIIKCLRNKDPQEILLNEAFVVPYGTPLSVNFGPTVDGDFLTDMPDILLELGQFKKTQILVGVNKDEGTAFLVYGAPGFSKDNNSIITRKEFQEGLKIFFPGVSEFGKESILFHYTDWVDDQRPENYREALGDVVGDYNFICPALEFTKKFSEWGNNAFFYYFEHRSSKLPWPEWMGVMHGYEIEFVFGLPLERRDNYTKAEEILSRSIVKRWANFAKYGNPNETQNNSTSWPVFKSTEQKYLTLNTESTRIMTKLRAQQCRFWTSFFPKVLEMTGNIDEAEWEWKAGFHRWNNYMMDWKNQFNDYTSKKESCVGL

For `Cc1ccc(C[n+]2ccc(Cn3c4c(c5ccccc53)CCCC4)cc2)cc1`, the pIC50 [1] was 4.85, the pIC50 [2] was 6.15 and the Ratio IC50 [3] was 20.

With `Fc1ccccc1C[n+]1cccc(Cn2c3c(c4ccccc42)CCCC3)c1` the pIC50 [1] was 4.17, the pIC50 [2] was 6.29 and the Ratio IC50 [3] was 133.

For `Clc1cccc(C[n+]2ccc(Cn3c4c(c5ccccc53)CCCC4)cc2)c1`, the pIC50 [1] was 5.32, the pIC50 [2] was 6.59 and the Ratio IC50 [3] was 18.5.

`Fc1cccc(C[n+]2ccc(Cn3c4c(c5ccccc53)CCCC4)cc2)c1` showed a pIC50 [1] of 4.46, a pIC50 [2] of 6.01 and a Ratio IC50 [3] of 35.

In the case of `Cc1ccc(C[n+]2cccc(Cn3c4c(c5ccccc53)CCCC4)c2)cc1`, the pIC50 [1] was 4.80, the pIC50 [2] was 7.06 and the Ratio IC50 [3] was 181. For the same compound, the Ratio IC50 [4] was 3.97, the pKi [5] was 7.05 and the viability at 10 µM [6] was 65%. The inhibition [7] was 30%, the inhibition [8] was 10% and the inhibition [9] was 55.7%. For the same compound, the inhibition [10] was 51.8%.

Compound `Fc1ccccc1C[n+]1ccc(Cn2c3c(c4ccccc42)CCCC3)cc1` has a pIC50 [1] of 4.52, a pIC50 [2] of 6.20 and a Ratio IC50 [3] of 47.6.

Work on `Clc1ccc(C[n+]2ccc(Cn3c4c(c5ccccc53)CCCC4)cc2)cc1` yielded a pIC50 [1] of 4.59, a pIC50 [2] of 5.68 and a Ratio IC50 [3] of 12.2.

In the case of `O=C1c2ccccc2C(=O)N1Cc1cc[n+](Cc2ccccc2F)cc1`, the Ratio IC50 [3] was 11.3, the pIC50 [11] was 6.11 and the pIC50 [12] was 5.06.

With `Clc1ccccc1C[n+]1cccc(Cn2c3c(c4ccccc42)CCCC3)c1` the pIC50 [1] was 4.44, the pIC50 [2] was 6.70 and the Ratio IC50 [3] was 180.

`Cc1cccc(C[n+]2ccc(Cn3c4c(c5ccccc53)CCCC4)cc2)c1` gave a pIC50 [1] of 5.29, a pIC50 [2] of 6.62 and a Ratio IC50 [3] of 21.2.

`O=C(NCc1cc[n+](Cc2cccc(F)c2)cc1)c1cc2ccccc2oc1=O` gave a Ratio IC50 [13] of 0.83, a pIC50 [14] of 4.99 and a pIC50 [15] of 4.92.

Work on `O=C1CCC(=O)N1Cc1cc[n+](Cc2cccc(F)c2)cc1` yielded a Ratio IC50 [3] of 6.34, a pIC50 [11] of 5.14 and a pIC50 [12] of 4.34.

With `Clc1cccc(C[n+]2cccc(Cn3c4c(c5ccccc53)CCCC4)c2)c1` the pIC50 [1] was 4.52, the pIC50 [2] was 6.60 and the Ratio IC50 [3] was 120.

With `Cc1ccccc1C[n+]1cccc(Cn2c3c(c4ccccc42)CCCC3)c1` the pIC50 [1] was 4.33, the pIC50 [2] was 6.42 and the Ratio IC50 [3] was 124.

For `Fc1cccc(C[n+]2cccc(Cn3c4c(c5ccccc53)CCCC4)c2)c1`, the pIC50 [1] was 4.11, the pIC50 [2] was 6.25 and the Ratio IC50 [3] was 138.

In the case of `Fc1ccc(C[n+]2ccc(Cn3c4c(c5ccccc53)CCCC4)cc2)cc1`, the pIC50 [1] was 4.48, the pIC50 [2] was 6.14 and the Ratio IC50 [3] was 44.9.

Work on `Cc1ccccc1C[n+]1ccc(Cn2c3c(c4ccccc42)CCCC3)cc1` yielded a pIC50 [1] of 5.08, a pIC50 [2] of 6.40 and a Ratio IC50 [3] of 21.

Compound `Clc1ccc(C[n+]2cccc(Cn3c4c(c5ccccc53)CCCC4)c2)cc1` has a pIC50 [1] of 4.56, a pIC50 [2] of 6.66 and a Ratio IC50 [3] of 124.

Work on `Clc1ccccc1C[n+]1ccc(Cn2c3c(c4ccccc42)CCCC3)cc1` yielded a pIC50 [1] of 5.19, a pIC50 [2] of 6.54 and a Ratio IC50 [3] of 22.4.

Compound `c1ccc(C[n+]2ccc(Cn3c4c(c5ccccc53)CCCC4)cc2)cc1` has a pIC50 [1] of 4.52, a pIC50 [2] of 6.32 and a Ratio IC50 [3] of 62.6.

In the case of `O=C1Nc2ccccc2/C1=C\c1cc[n+](Cc2ccccc2Cl)cc1`, the pIC50 [16] was 9.40, the pIC50 [17] was 2.86 and the Ratio IC50 [13] was 3110.

Work on `Cc1cccc(C[n+]2cccc(Cn3c4c(c5ccccc53)CCCC4)c2)c1` yielded a pIC50 [1] of 4.77, a pIC50 [2] of 6.96 and a Ratio IC50 [3] of 153.

For `Fc1ccc(C[n+]2cccc(Cn3c4c(c5ccccc53)CCCC4)c2)cc1`, the pIC50 [1] was 4.14, the pIC50 [2] was 6.28 and the Ratio IC50 [3] was 138.

For `c1ccc(C[n+]2cccc(Cn3c4c(c5ccccc53)CCCC4)c2)cc1`, the pIC50 [1] was 4.32, the pIC50 [2] was 6.42 and the Ratio IC50 [3] was 126.
